Some test systems named below: SK-MEL-5 melanoma; IGROV1 ovarian; SF-268 CNS; MDA-MB-435; SF-539 CNS; MALME-3M melanoma; NCI/ADR-RES ovarian; LOX IMVI melanoma; KM12 colon; SK-MEL-2 melanoma.
What all share (assay): growth of human tumour cells (NCI), 48 h

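Five concentrations, 48 hours, 96-well plates. GI50 marks 50% less growth. Definition used: TGI = concentration required for complete inhibition of growth.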

Regarding `O=C(Oc1cccc(Nc2ncnc3ccccc23)c1)c1ccccc1Cl`, the GI50 is 14.6 µM in the experiment with SK-MEL-5 melanoma; 14.9 µM in the experiment on IGROV1 ovarian; 20.8 µM in the experiment with SF-268 CNS; 41.6 µM in the experiment on MDA-MB-435; 30.5 µM in the experiment with SF-539 CNS; 23.9 µM in the experiment with MALME-3M melanoma. Besides, the GI50 was 14.5 µM in the experiment with NCI/ADR-RES ovarian, 15.8 µM in the experiment on LOX IMVI melanoma and 14.4 µM with KM12 colon. Moreover, the TGI with SK-MEL-5 melanoma is 28.2 µM; in the experiment with IGROV1 ovarian, over 100 µM; in the experiment on SF-268 CNS, 67 µM; with MDA-MB-435, over 100 µM; with SF-539 CNS it was 88.9 µM; in the experiment with MALME-3M melanoma, 57.1 µM. Moreover, the TGI is 40.7 µM in the experiment with NCI/ADR-RES ovarian, 36.2 µM with LOX IMVI melanoma and 31.4 µM in the experiment on KM12 colon.

In the case of `CC(C)SC1SCC2C(=O)N(C)C3(CC3C)C(=O)OCC(NC(=O)c3nc4ccccc4cc3O)C(=O)NC(C)C(=O)N(C)C1C(=O)N(C)C1(CC1C)C(=O)OCC(NC(=O)c1nc3ccccc3cc1O)C(=O)NC(C)C(=O)N2C` (configuration not stated), the TGI in the experiment with SK-MEL-5 melanoma is under 0.0001 µM; with SF-268 CNS, 0.00129 µM; with MDA-MB-435, under 0.0001 µM; in the experiment with SF-539 CNS, under 0.0001 µM; with LOX IMVI melanoma, under 0.0001 µM; in the experiment on KM12 colon, under 0.0001 µM. For the same compound, in the experiment on NCI/ADR-RES ovarian, the GI50 was 0.0334 µM.

Consider `Cc1ccc(C)c(-n2c(-c3ccc(Br)cc3)csc2=NC(=O)c2ccccc2F)c1`, for which the GI50 in the experiment on SK-MEL-5 melanoma is 2.62 µM; in the experiment with SK-MEL-2 melanoma, over 100 µM; with IGROV1 ovarian, over 100 µM; in the experiment with SF-268 CNS, over 100 µM; with MDA-MB-435, over 100 µM; with SF-539 CNS it was over 100 µM. In addition, the GI50 in the experiment on MALME-3M melanoma, in the experiment on NCI/ADR-RES ovarian and in the experiment with LOX IMVI melanoma was over 100 µM throughout. The TGI in the experiment on SK-MEL-5 melanoma, in the experiment on SK-MEL-2 melanoma, in the experiment on IGROV1 ovarian, in the experiment on SF-268 CNS, in the experiment with MDA-MB-435 and with SF-539 CNS was over 100 µM each time. Besides, the TGI in the experiment with MALME-3M melanoma, with NCI/ADR-RES ovarian and in the experiment on LOX IMVI melanoma was over 100 µM in each case.

`O=C(Nc1ncc([N+](=O)[O-])s1)c1cccc([N+](=O)[O-])c1`: the GI50 in the experiment on SK-MEL-5 melanoma is 2.75 µM; in the experiment with IGROV1 ovarian, 3.98 µM; in the experiment on SF-268 CNS, 8.25 µM; with MDA-MB-435 it was 3.16 µM; in the experiment on SF-539 CNS, 3.23 µM; with MALME-3M melanoma, 2.79 µM. For the same compound, the results for the GI50 in the experiment on NCI/ADR-RES ovarian, with LOX IMVI melanoma and in the experiment on KM12 colon were 3.32 µM, 3.66 µM and 4.61 µM, respectively. The TGI was 11.5 µM in the experiment on SK-MEL-5 melanoma; over 56.3 µM with IGROV1 ovarian; over 100 µM in the experiment on SF-268 CNS; 20.9 µM in the experiment on MDA-MB-435; 37.1 µM in the experiment on SF-539 CNS; 8.5 µM in the experiment with MALME-3M melanoma. The values for the TGI in the experiment on NCI/ADR-RES ovarian, in the experiment with LOX IMVI melanoma and in the experiment on KM12 colon were over 100 µM, over 100 µM and 65.6 µM, respectively.

Take `O=C(Nc1cccc(C2=NCCN2)c1)c1ccc(OCCCOc2ccc(C(=O)Nc3cccc(C4=NCCN4)c3)cc2)cc1`: in the experiment on NCI/ADR-RES ovarian, the GI50 is 46.2 µM and the TGI is over 100 µM.

Take `O=C1NC(=O)C2=C1CCC2O` (configuration not stated): the TGI in the experiment on SK-MEL-2 melanoma, in the experiment with IGROV1 ovarian, in the experiment with SF-268 CNS, in the experiment with MDA-MB-435, in the experiment on SF-539 CNS and in the experiment with MALME-3M melanoma was over 100 µM each time. Further, the TGI with NCI/ADR-RES ovarian, in the experiment on LOX IMVI melanoma and with KM12 colon was over 100 µM each time.

As for `CC1=C(C(=O)Nc2ccc(F)c(Cl)c2)C(c2cccc(O)c2)NC(=S)N1` (configuration not stated), the GI50 is 11.2 µM in the experiment on SK-MEL-5 melanoma; 20.3 µM in the experiment on SK-MEL-2 melanoma; 22.9 µM in the experiment on IGROV1 ovarian; 17.8 µM with SF-268 CNS; 11.6 µM with MDA-MB-435; over 50 µM in the experiment with NCI/ADR-RES ovarian. The GI50 with LOX IMVI melanoma is 13.7 µM; in the experiment on KM12 colon, 10.8 µM. For the same compound, the TGI in the experiment on SK-MEL-5 melanoma was 40.3 µM; in the experiment on SK-MEL-2 melanoma, over 50 µM; with IGROV1 ovarian it was over 50 µM; in the experiment on SF-268 CNS, over 50 µM; with MDA-MB-435, 28.9 µM; in the experiment with NCI/ADR-RES ovarian it was over 50 µM. Moreover, the values for the TGI in the experiment on LOX IMVI melanoma and in the experiment with KM12 colon were 41 µM and 35.8 µM, respectively.

On to `COc1cccc2c(Nc3ccc(C(=O)NCCNCCO)cc3)cc(-c3ccccc3)nc12`, for which the GI50 in the experiment with SK-MEL-5 melanoma is 38.6 µM; in the experiment with SK-MEL-2 melanoma it was 19.5 µM; in the experiment with IGROV1 ovarian it was 20.4 µM; with MDA-MB-435, 27.8 µM; with SF-539 CNS it was 40.9 µM; in the experiment with MALME-3M melanoma, 21 µM. Besides, the GI50 in the experiment with NCI/ADR-RES ovarian is over 100 µM; in the experiment with LOX IMVI melanoma it was 3.17 µM; with KM12 colon, 33.2 µM. Also, the TGI is over 100 µM with SK-MEL-5 melanoma; 40.8 µM with SK-MEL-2 melanoma; 48.7 µM in the experiment with IGROV1 ovarian; 75.5 µM with MDA-MB-435; over 100 µM in the experiment on SF-539 CNS; 37.9 µM in the experiment with MALME-3M melanoma. Moreover, the values for the TGI with NCI/ADR-RES ovarian, in the experiment with LOX IMVI melanoma and with KM12 colon were over 100 µM, 23.2 µM and over 100 µM, respectively.

Consider `Cc1cc(S(=O)(=O)Nc2nnc(-c3ccco3)c(-c3ccco3)n2)c(SCc2ccccc2)cc1Cl`, for which the GI50 was 17.5 µM in the experiment on SK-MEL-5 melanoma; 32.4 µM in the experiment with IGROV1 ovarian; 20.1 µM with SF-268 CNS; 25.4 µM in the experiment on MDA-MB-435; 19.9 µM in the experiment on SF-539 CNS; 19.8 µM in the experiment with MALME-3M melanoma. Further, the GI50 in the experiment on NCI/ADR-RES ovarian is 39.4 µM; in the experiment on LOX IMVI melanoma, 24.7 µM; with KM12 colon, 27.8 µM. The TGI in the experiment with SK-MEL-5 melanoma was 32.5 µM; with IGROV1 ovarian, over 100 µM; in the experiment with SF-268 CNS, 41.2 µM; in the experiment with MDA-MB-435, 49.6 µM; in the experiment with SF-539 CNS it was 41.1 µM; in the experiment with MALME-3M melanoma it was 43.9 µM. The values for the TGI in the experiment with NCI/ADR-RES ovarian, in the experiment with LOX IMVI melanoma and in the experiment with KM12 colon were over 100 µM, 45.4 µM and over 100 µM, respectively.

For `COC(=O)[C@H](C)[C@H]1CC[C@@](C)([C@H]2CC3C(C)(C)[C@H]4CCC(C)=C[C@H]4C[C@@]3(C)O2)OO1` (some centres not stated), the TGI in the experiment with SK-MEL-5 melanoma is 17.8 µM; in the experiment with SK-MEL-2 melanoma it was 31.4 µM; in the experiment on IGROV1 ovarian it was 11.1 µM; in the experiment with SF-268 CNS, 25.9 µM; in the experiment with SF-539 CNS, 28.4 µM; in the experiment with MALME-3M melanoma, 28.3 µM. In addition, the figures for the TGI in the experiment on LOX IMVI melanoma and in the experiment on KM12 colon were 3.5 µM and 25.7 µM, respectively.

(Values after PubChem BioAssay (NCI).)
